For series [1], the system named is RERF-LC-AI^IVP human lung tumor cells. Description: nude mouse xenograft model, in vivo growth rate of RERF-LC-AI^IVP tumors. The settings on record: 5 times per week, 15 doses, nude mice. The protocol:
The human squamous non-small cell lung cancer cell line, RERF-LC-AI (RCB0444; S. Kyoizumi, et al., Cancer. Res. 45:3274-3281, 1985), was obtained from the Riken Cell Bank (Tsukuba, Ibaraki, Japan). The cell line was cultured in growth media prepared from 50% Dulbecco's Modified Eagle Medium (high glucose), 50% RPMI Media 1640, 10% fetal bovine serum (FBS), 1% 100× L-glutamine, 1% 100× penicillin-streptomycin, 1% 100× sodium pyruvate and 1% 100× MEM non-essential amino acids. FBS was obtained from American Type Culture Collection (Manassas, Va., USA) and all other reagents were obtained from Invitrogen Corp. (Carlsbad, Calif., USA). […]
The growth media was replaced every 2-3 days until the flask became 90% confluent, typically in 5-7 days. […] The supernatant was aspirated and the cell pellet was resuspended in 10 ml of growth media and the cell number determined using a hemocytometer. […]
Seven to eight week old, female Crl:CD-1-nuBR (nude) mice were obtained from Charles River Laboratories (Wilmington, Mass., USA) Animals were housed 4-5/cage in micro-isolators, with a 12 hr/12 hr light/dark cycle, acclimated for at least 1 week prior to use and fed normal laboratory chow ad libitum. […] Tumor volumes (V) were calculated by caliper measurement of the width (W), length (L) and thickness (T) of tumors using the following formula: V=0.5236×(L×W×T). […]

Series [2] concerns human NSCLC cell line NCI-H1975. Description: SCID mouse xenograft model, in vivo growth of NCI-H1975 tumors. Here is the method: (§1) The human non-small cell lung cancer (NSCLC) cell line, NCI-H1975 (ATCC #CRL-5908) was obtained from the American Type Culture Collection (ATCC; Manassas, Va., USA). The human multiple myeloma cell line, RPMI 8226 (ATCC #CCL-155) was also obtained from the ATCC.
(§2) NCI-H1975 cells were cultured in growth media prepared from 50% Dulbecco's Modified Eagle Medium (high glucose), 50% RPMI Media 1640 (4.5 g/L glucose), 10% fetal bovine serum (FBS), 10 mM HEPES, 1% 100× Penicillin-Streptomycin, 1% 100× sodium pyruvate and 1% 100× MEM non-essential amino acids. RPMI 8226 cells were cultured in growth media prepared with RPMI Media 1640 (4.5 g/L glucose), 10% FBS, 10 mM HEPES, 1% 100× Penicillin-Streptomycin, 1% 100× sodium pyruvate and 1% 100× MEM non-essential amino acids. FBS was obtained from ATCC and all other reagents were obtained from Invitrogen Corp. (Carlsbad, Calif., USA). Cells that had been cryopreserved in liquid nitrogen were rapidly thawed at 37° C. and transferred to a tissue culture flask containing growth media and then incubated at 37° C. in a 5% CO2 incubator. To expand the RPMI 8226 cell line, growth media was changed every 2-3 days and cultures were passaged 1:3 to 1:5 every 3-5 days. When the a 175 cm^2 flask reached approximately 20-40×10(6) total cells, the above passaging process was repeated until sufficient cells had been obtained for implantation into mice. To expand the NCI-H1975 cell line, cultures were split 1:5 every 3 days when 175 cm^2 flasks became 85% confluent. Cultures were passaged by washing with 10 mL of room temperature phosphate buffered saline (PBS) and then disassociating cells by adding 5 mL 1× trypsin-EDTA and incubating at 37° C. until the cells detached from the surface of the flask. To inactivate the trypsin, 5 mL of growth media was added and then the contents of the flask were centrifuged to pellet the cells. The supernatant was aspirated and the cell pellet was resuspended in 10 mL of growth media and the cell number determined using a hemocytometer. Cells were seeded into 175 cm^2 flasks containing 50 mL of growth media and incubated at 37° C. in a 5% CO2 incubator. When the flasks reached 85% confluence, the above passaging process was repeated until sufficient cells had been obtained for implantation into mice.
(§3) Six to eight week old, female CB17/Icr-Prkdc^scid/Crl (SCID) mice were obtained from Charles River Laboratories (Wilmington, Mass., USA) Animals were housed 4-5/cage in micro-isolators, with a 12 hr/12 hr light/dark cycle, acclimated for at least 1 week prior to use and fed normal laboratory chow ad libitum. Animals were between seven to thirteen weeks of age at implantation. To implant NCI-H1975 or RPMI 8226 tumor cells into SCID mice, cells were collected as described above, washed in PBS and resusupended at a concentration of 5×10(7) cells/mL in 50% non-supplemented medium and 50% Matrigel Basement Membrane Matrix (#354234; BD Biosciences; Bedford, Mass., USA). Using a 27 gauge needle and 1 cc syringe, 5×10(6) […] or RPMI 8226 cells in 0.1 mL of a cell suspension were injected subcutaneously into the flanks of SCID mice.
(§4) For the NCI-H1975 model, tumors were then permitted to develop in vivo until the majority reached approximately 100-225 mm^3 in tumor volume, which required ˜1½ weeks. For the RPMI 8226 model, tumors were permitted to develop in vivo until the majority reached approximately 80-200 mm^3 in tumor volume, which required ˜3½ weeks. […] Tumor volumes (V) were calculated by caliper measurement of the width (W), length (L) and thickness (T) of tumors using the following formula: V=0.5236×(L×W×T). […]

Series [3] relates to human multiple myeloma cell line RPMI 8226. Description: SCID mouse xenograft model, in vivo growth of RPMI 8226 tumors. The protocol: as §1, §2, §3, §4
Series [4] has as its system human NSCLC cell line HCC827. In words: SCID mouse xenograft study, in vivo growth of HCC827 tumors. The settings on record: 4 doses (FIG. 8). Here is the method:
Tumor-bearing animals (8 mice/group) were injected 1 time per week for a total of 4 doses (arrowheads) with vehicle alone, Compound 1 alone, bevacizumab alone or a combination of Compound 1 and bevacizumab dosed concurrently. Compound 1 was i.v. injected and bevacizumab was i.p. injected. The average tumor volumes for each group (error bars represent SEM) were determined every 2-4 days.

Series [5] can be described thus: highest non-severely toxic dose (HNSTD) in tumor-bearing SCID mice. It counts as in vivo, mouse. The following applies: i.v. dosed once per week, tumor-bearing SCID mice (data not shown). The protocol:
The combination of Compound 1 and bevacizumab was also examined in the NCI-H1975 model using higher doses of each test article. […] The HNSTD was determined based on prior studies and was defined as the dose and dosing schedule at which no morbidity was observed, and at which no individual animal lost ≧20% of its body weight and no treatment group lost ≧10% average body weight over the course of the study.

The nature of series [6]: body weight changes in nude mouse RERF-LC-AI^IVP xenograft study. It counts as in vivo. The following applies: 200 mg/kg body weight i.p., 5 times per week, 15 doses, nude mice. Here is the method:
Seven to eight week old, female Crl:CD-1-nuBR (nude) mice were obtained from Charles River Laboratories (Wilmington, Mass., USA) Animals were housed 4-5/cage in micro-isolators, with a 12 hr/12 hr light/dark cycle, acclimated for at least 1 week prior to use and fed normal laboratory chow ad libitum. Studies were conducted on animals between 8 and 12 weeks of age at implantation. To implant RERF-LC-AI tumor cells into nude mice, the cells were trypsinized as above, washed in PBS and resuspended at a concentration of 50×10(6) cells/ml in 50% non-supplemented RPMI Media 1640 and 50% Matrigel Basement Membrane Matrix (#354234; BD Biosciences; Bedford, Mass., USA). Using a 27 gauge needle and 1 cc syringe, 0.1 ml of the cell suspension was injected subcutaneously into the flank of each nude mouse. Tumor volumes (V) were calculated by caliper measurement of the width (W), length (L) and thickness (T) of tumors using the following formula: V=0.5236×(L×W×T).
The Hsp90 inhibitor, 17-allylamino-17-demethoxygeldanamycin (17-AAG), was employed as a positive control (Albany Molecular Research, Albany, N.Y., USA). Stock solutions of test articles were prepared by dissolving the appropriate amounts of each compound in dimethyl sulfoxide (DMSO) by sonication in an ultrasonic water bath. Stock solutions were prepared weekly, stored at −20° C. and diluted fresh each day for dosing. […]

Entries after “also recorded” stand apart in the source; their conditions may differ.

Consider `C=CCNC1=C2C[C@@H](C)C[C@H](OC)[C@H](O)[C@@H](C)/C=C(\C)[C@H](OC(N)=O)[C@@H](OC)/C=C\C=C(/C)C(=O)NC(=CC1=O)C2=O` [Compound 17-AAG, 17-allylamino-17-demethoxygeldanamycin, reference compound], for which the “tumor growth (growth rate of tumor cells)” value in series [1] (75 mg/kg body weight i.p.) was “inhibited tumor growth; also recorded: decreased the growth rate”.
For the compound `CC(C)c1cc(-c2nnc(O)n2-c2ccc3c(ccn3C)c2)c(O)cc1O` [Compound 1, 3-(2,4-DIHYDROXY-5- ISOPROPYL-PHENYL)-4-(1- METHYL-INDOL-5-YL)-5- HYDROXY-[1,2,4] TRIAZOLE], the “% T/C value” in series [2] (50 mg/kg i.v. once per week (3 doses), day 29, SCID mice) was 39%; in series [2] (150 mg/kg i.v. once per week (4 doses), day 38, SCID mice), 3%; in series [3] (12.5 mg/kg i.v. five times per week (15 doses), day 49, SCID mice), 63%; in series [3] (second study, single dose 12.5 mg/kg, over three days (data not shown)), 83%. Moreover, the tumor growth result in series [2] (50 mg/kg i.v. once per week, 3 doses (FIG. 3)) was “moderately inhibited tumor growth”; in series [2] (150 mg/kg i.v. once per week, 4 doses (FIG. 4)), “substantially inhibited tumor growth”; in series [3] (12.5 mg/kg i.v. 5 times per week, 15 doses (FIG. 5)), “moderately inhibited tumor growth”; in series [4] (150 mg/kg i.v. once per week) it was “moderately inhibited tumor growth”. Also, in series [5], the “highest non-severely toxic dose (HNSTD)” value is given as 150 mg/kg.
Regarding `CCc1cc(-c2nnc(S)n2-c2ccc(OC)c3c2ccn3C(C)C)c(O)cc1O` [Compound 26, 3-(2,4-DIHYDROXY-5-ETHYL- PHENYL)-4-(1-ISOPROPYL-7- METHOXY-INDOL-4-YL)-5- MERCAPTO-[1,2,4] TRIAZOLE], in series [1] (200 mg/kg body weight i.p.), the “tumor growth (growth rate of tumor cells)” value is on record as “inhibited tumor growth; also recorded: decreased the growth rate”. In addition, the “overt toxicity (effect on body weights)” value in series [6] is reported as “not overtly toxic; also recorded: not associated with overt toxicity”.
As to “bevacizumab: Humanized monoclonal antibody that blocks VEGF; VEGF inhibitor purchased from Genentech [reference compound]”, the “% T/C value” in series [2] (2 mg/kg i.p. once per week (3 doses), day 29, SCID mice) was 18%; in series [2] (10 mg/kg i.p. once per week (4 doses), day 38, SCID mice), 17%; in series [3] (0.3 mg/kg i.p. twice per week (6 doses), day 49, SCID mice), 26%; in series [3] (second study, single dose 1 mg/kg, over three days (data not shown)) it was 42%. For the same compound, the tumor growth entry is listed as “moderately inhibited tumor growth” in series [2] (2 mg/kg i.p. once per week, 3 doses (FIG. 3)); “moderately inhibited tumor growth” in series [2] (10 mg/kg i.p. once per week, 4 doses (FIG. 4)); “moderately inhibited tumor growth” in series [3] (0.3 mg/kg i.p. 2 times a week, 6 doses (FIG. 5)); “moderately inhibited tumor growth” in series [4] (10 mg/kg i.p. once per week).

The record behind these values is patent US20130156755A1, “CANCER THERAPY USING A COMBINATION OF A HSP90 INHIBITORY COMPOUNDS AND A VEGF INHIBITOR” (Synta Pharmaceuticals Corp., priority 2010, published 2013).
